Laboratory results from patent publication US6436963B1 (priority 1998, dated 2002).

Legend:
Format in all cases: in vivo
Puccinia recondita = test: Brown Rust (PUCCRT), protectant spray test on wheat seedlings; details: wheat (cultivar Monon), sprayed to run off at 100 ppm, inoculated after 24 hours
Leptosphaeria nodorum = test: Glume Blotch of Wheat (LEPTNO), protectant spray test on wheat seedlings; details: wheat (cultivar Monon), sprayed to run off at 100 ppm, inoculated after 24 hours
Erysiphe graminis = test: Powdery Mildew of Wheat (ERYSGT), protectant spray test on wheat seedlings; details: wheat (cultivar Monon), sprayed to run off at 100 ppm, inoculated after 24 hours
Phytophthora infestans = details: tomatoes (cultivar Rutgers), sprayed to run off at 100 ppm, inoculated after 24 hours

Row | SMILES | PUCCRT control of plant disease (Puccinia recondita) | LEPTNO control of plant disease (Leptosphaeria nodorum) | ERYSGT control of plant disease (Erysiphe graminis) | PHYTIN control of plant disease (Phytophthora infestans)
1 | CNC(=O)C(=NOC)c1ccccc1COc1ncc(C(OC(C)=O)c2ccc(OC)c(OC)c2)cc1Cl (stereo not shown) [Example 116] | ++ (++ = 75-100% control of plant disease) | ++ (++ = 75-100% control of plant disease) | ++ (++ = 75-100% control of plant disease) | + (+ = 25-74% control of plant disease)
2 | CNC(=O)C(=NOC)c1ccccc1COc1ncc(C(OC(C)=O)c2ccccc2Cl)cc1Cl (stereo not shown) [Example 74] | ++ (++ = 75-100% control of plant disease) | ++ (++ = 75-100% control of plant disease) | ++ (++ = 75-100% control of plant disease) | ++ (++ = 75-100% control of plant disease)
3 | CNC(=O)C(=NOC)c1ccccc1COc1ncc(C(C)OCc2ccccc2)cc1Cl (racemic) [Example 52] | ++ (++ = 75-100% control of plant disease) | ++ (++ = 75-100% control of plant disease) | ++ (++ = 75-100% control of plant disease) | − (− = 0-24% control of plant disease)
4 | CNC(=O)C(=NOC)c1ccccc1COc1ncc(C(O)c2cccc(Cl)c2)cc1Cl (stereo not shown) [Example 73] | ++ (++ = 75-100% control of plant disease) | ++ (++ = 75-100% control of plant disease) | ++ (++ = 75-100% control of plant disease) | ++ (++ = 75-100% control of plant disease)
5 | CNC(=O)C(=NOC)c1ccccc1COc1ncc(C(OC)c2cccc(C)c2)cc1Cl (stereo not shown) [Example 114] | ++ (++ = 75-100% control of plant disease) | ++ (++ = 75-100% control of plant disease) | ++ (++ = 75-100% control of plant disease) | − (− = 0-24% control of plant disease)
6 | CNC(=O)C(=NOC)c1ccccc1COc1cc(OC)c(C(OC)c2cccc(C)c2)cn1 (stereo not shown) [Example 115] | ++ (++ = 75-100% control of plant disease) | ++ (++ = 75-100% control of plant disease) | + (+ = 25-74% control of plant disease) | − (− = 0-24% control of plant disease)
7 | CCOC(=O)OC(c1ccccc1)c1cnc(OCc2ccccc2C(=NOC)C(=O)NC)c(Cl)c1 (racemic) [Example 33] | ++ (++ = 75-100% control of plant disease) | ++ (++ = 75-100% control of plant disease) | + (+ = 25-74% control of plant disease) | ++ (++ = 75-100% control of plant disease)
8 | CNC(=O)C(=NOC)c1ccccc1COc1ncc(C(C)(C)O)cc1Cl [Example 34] | ++ (++ = 75-100% control of plant disease) | + (+ = 25-74% control of plant disease) | − (− = 0-24% control of plant disease) | + (+ = 25-74% control of plant disease)
9 | CC[Si](CC)(CC)OC(c1ccccc1)c1cnc(OCc2ccccc2C(=NOC)C(=O)NC)c(Cl)c1 (stereo not shown) [Example 67] | ++ (++ = 75-100% control of plant disease) | ++ (++ = 75-100% control of plant disease) | ++ (++ = 75-100% control of plant disease) | = =
10 | CNC(=O)C(=NOC)c1ccccc1COc1ncc(C(C)OCc2ccc(C)cc2)cc1Cl (racemic) [Example 44] | ++ (++ = 75-100% control of plant disease) | ++ (++ = 75-100% control of plant disease) | ++ (++ = 75-100% control of plant disease) | ++ (++ = 75-100% control of plant disease)
11 | CNC(=O)C(=NOC)c1ccccc1COc1ncc(C(O)c2ccc(C)cc2)cc1Cl (stereo not shown) [Example 70] | ++ (++ = 75-100% control of plant disease) | ++ (++ = 75-100% control of plant disease) | ++ (++ = 75-100% control of plant disease) | ++ (++ = 75-100% control of plant disease)
12 | CNC(=O)C(=NOC)c1ccccc1COc1ncc(C2(c3ccccc3)COC(=S)O2)cc1Cl (stereo not shown) [Example 125] | ++ (++ = 75-100% control of plant disease) | ++ (++ = 75-100% control of plant disease) | ++ (++ = 75-100% control of plant disease) | ++ (++ = 75-100% control of plant disease)
13 | CNC(=O)C(=NOC)c1ccccc1COc1ncc(C(OC(=O)C(C)C)c2ccccc2)cc1Cl (racemic) [Example 32] | ++ (++ = 75-100% control of plant disease) | − (− = 0-24% control of plant disease) | − (− = 0-24% control of plant disease) | − (− = 0-24% control of plant disease)
14 | CNC(=O)C(=NOC)c1ccccc1COc1ncc(C(OC(=O)C(F)(F)F)c2ccccc2)cc1Cl (racemic) [Example 37] | ++ (++ = 75-100% control of plant disease) | ++ (++ = 75-100% control of plant disease) | + (+ = 25-74% control of plant disease) | ++ (++ = 75-100% control of plant disease)
15 | CNC(=O)C(=NOC)c1ccccc1COc1ncc(C(O)c2cccc(C)c2)cc1Cl (stereo not shown) [Example 85] | ++ (++ = 75-100% control of plant disease) | ++ (++ = 75-100% control of plant disease) | ++ (++ = 75-100% control of plant disease) | − (− = 0-24% control of plant disease)
16 | CNC(=O)C(=NOC)c1ccccc1COc1ncc(C(OC)c2ccc(OC(F)(F)F)cc2)cc1Cl (stereo not shown) [Example 79] | ++ (++ = 75-100% control of plant disease) | ++ (++ = 75-100% control of plant disease) | ++ (++ = 75-100% control of plant disease) | − (− = 0-24% control of plant disease)
17 | CNC(=O)C(=NOC)c1ccccc1COc1ncc(C(OC(C)C)c2ccccc2)cc1Cl (stereo not shown) [Example 117] | ++ (++ = 75-100% control of plant disease) | ++ (++ = 75-100% control of plant disease) | ++ (++ = 75-100% control of plant disease) | − (− = 0-24% control of plant disease)
18 | CNC(=O)C(=NOC)c1ccccc1COc1ncc(C(OC=O)c2ccccc2)cc1Cl (racemic) [Example 54] | ++ (++ = 75-100% control of plant disease) | ++ (++ = 75-100% control of plant disease) | ++ (++ = 75-100% control of plant disease) | ++ (++ = 75-100% control of plant disease)
19 | CNC(=O)C(=NOC)c1ccccc1COc1ncc(C(C)OCc2ccc(Cl)cc2)cc1Cl (racemic) [Example 27] | ++ (++ = 75-100% control of plant disease) | ++ (++ = 75-100% control of plant disease) | ++ (++ = 75-100% control of plant disease) | − (− = 0-24% control of plant disease)
